PMC8294059, “Identification and Immune Assessment of T Cell Epitopes in Five Plasmodium falciparum Blood Stage Antigens to Facilitate Vaccine Candidate Selection and Optimization” (Frontiers in Immunology, 2021)
pIC50: −log10 of the molar value. Where two headings read alike, the source gives them in different places. Where a SMILES comes first, the peptide text is derived from it.

Biological target: HLA-B*0702 (Homo sapiens, UniProt P01889)
Assay: In vitro class I HLA binding assay (fluorescence polarization competition)
Conditions: allele B*0702; for IC50: fluorescence polarization competition, read-out: IC50 (nM), in vitro HLA binding affinity
Description: A cell-free class I HLA binding assay that allows for in vitro quantification of peptide-HLA binding affinity in a competition format was used. In this assay, a fluorescently labeled, high binding, control peptide is loaded onto 384-well ½-area plates along with unlabeled experimental peptides. To remove endogenous peptides and render the HLA A and B molecules receptive to binding, HLA is heated at 53°C for 15 minutes and immediately added to the assay. The mixture is then allowed to stand for three days. […] Binding of experimental peptides is expressed as the percent inhibition of the labeled control peptide (experimental fluorescence / control fluorescence, multiplied by 100). The percent inhibition values for each experimental peptide (across a range of molar concentrations) are used to calculate the concentration which inhibits 50% of the labeled control peptide’s specific binding. This value is referred to as the peptide’s IC50.

Structure (SMILES): CC(C)C[C@H](NC(=O)[C@H](CC(N)=O)NC(=O)[C@H](CCCCN)NC(=O)[C@H](CCCNC(=N)N)NC(=O)[C@@H]1CCCN1C(=O)[C@@H](N)CS)C(=O)N[C@@H](CCC(N)=O)C(=O)N[C@@H](CC(N)=O)C(=O)N[C@@H](C)C(=O)O [AMA1_302] (H-CPRKNLQNA-OH)
- IC50: 484 nM

Structure (SMILES): CC[C@H](C)[C@H](NC(=O)[C@@H]1CCCN1C(=O)[C@@H](N)Cc1c[nH]cn1)C(=O)N[C@@H](CCC(=O)O)C(=O)N[C@H](C(=O)N[C@@H](CCC(=O)O)C(=O)N[C@@H](CC(N)=O)C(=O)N[C@@H](CC(N)=O)C(=O)N[C@@H](Cc1ccccc1)C(=O)O)C(C)C [AMA1_433] (H-HPIEVENNF-OH)
- IC50: 310000 nM

Structure (SMILES): CC(C)C[C@H](NC(=O)[C@@H](NC(=O)[C@@H]1CCCN1C(=O)[C@@H](NC(=O)[C@@H](NC(=O)[C@H](Cc1c[nH]cn1)NC(=O)[C@H](CO)NC(=O)[C@H](C)NC(=O)[C@@H](N)CCCNC(=N)N)[C@@H](C)O)[C@@H](C)O)C(C)C)C(=O)O [AMA1_608] (H-RASHTTPVL-OH)
- IC50: 258 nM

Structure (SMILES): CC[C@H](C)[C@H](N)C(=O)N1CCC[C@H]1C(=O)N[C@@H](Cc1ccccc1)C(=O)N[C@@H](Cc1c[nH]cn1)C(=O)N[C@@H](CCCCN)C(=O)N[C@@H](CCCCN)C(=O)N[C@@H](Cc1ccccc1)C(=O)N[C@H](C(=O)N[C@@H](CO)C(=O)N[C@@H](Cc1ccccc1)C(=O)O)[C@@H](C)CC [CYRPA_003] (H-IPFHKKFISF-OH)
- IC50: 21900 nM

Structure (SMILES): CC[C@H](C)[C@H](NC(=O)[C@H](Cc1ccc(O)cc1)NC(=O)[C@@H]1CCCN1C(=O)[C@@H](N)CCCNC(=N)N)C(=O)N[C@@H](CO)C(=O)N[C@@H](CCCCN)C(=O)N[C@@H](CC(N)=O)C(=O)N[C@@H](CC(=O)O)C(=O)N[C@@H](CC(C)C)C(=O)O [CYRPA_229] (H-RPYISKNDL-OH)
- IC50: 244 nM

Structure (SMILES): C[C@H](NC(=O)[C@@H](NC(=O)[C@@H](NC(=O)[C@H](CC(N)=O)NC(=O)CNC(=O)[C@H](Cc1ccc(O)cc1)NC(=O)[C@H](CCCCN)NC(=O)[C@H](CCC(=O)O)NC(=O)[C@@H]1CCCN1C(=O)[C@@H](N)CCCCN)[C@@H](C)O)[C@@H](C)O)C(=O)O [CYRPA_316] (H-KPEKYGNTTA-OH)
- IC50: 836000 nM

Structure (SMILES): CC[C@H](C)[C@H](NC(=O)[C@@H](NC(=O)[C@H](C)NC(=O)[C@H](CCCCN)NC(=O)[C@@H]1CCCN1C(=O)[C@@H](N)CCSC)C(C)C)C(=O)NCC(=O)N[C@@H](CO)C(=O)N[C@@H](CO)C(=O)N1CCC[C@H]1C(=O)O [EBA175_0971] (H-MPKAVIGSSP-OH)
- pIC50 (cell-free competition, fluorescence polarization at 72 hours, Non-binder = no dose-dependent inhibition, read-out: IC50): 3.53
